Test system: panel of 484 cancer cell lines
Assay: PRISM cancer cell line profiling, 5 days
Type: cell-based
Design: AUC: unit not given beside the values
Description: Cancer cell line profiling was performed using the Broad’s PRISM platform. Cell treatment and data analysis were performed as described in Yu et al[42]. Raw Luminex signal was converted to AUC values for each cell line as described. The resulting AUC profile for each compound was modeled against DepMap using the limma package in R[71]. Because hotspot mutation analysis was performed against DepMap, TP53 annotations in Fig. 6c,d are directly from DepMap.

CN1CCN(CCC(=O)Nc2ccc3c(=O)n(CC4(O)CCN(C(=O)[C@H](CCCNC(=O)c5ccc6c(Cl)c7c(nc6c5)CCCC7)Cc5ccccc5)CC4)cnc3c2)CC1 [XL177B]
AUC (MFE319_ENDOMETRIUM): 1.072 | AUC (MG63_BONE): 1.289 | AUC (MHHES1_BONE): 1.021 | AUC (MIAPACA2_PANCREAS): 1.024 | AUC (MKN1_STOMACH): 1.134 | AUC (MKN7_STOMACH): 0.9188 | AUC (MKN45_STOMACH): 0.937 | AUC (MKN74_STOMACH): 1.1384 | AUC (MON_SOFT_TISSUE): 0.868 | AUC (MPP89_PLEURA): 1.104 | AUC (MSTO211H_PLEURA): 1.149 | AUC (NB1_AUTONOMIC_GANGLIA): 0.9815 | AUC (NCIH23_LUNG): 1.159 | AUC (NCIH28_PLEURA): 1.1 | AUC (NCIH226_LUNG): 1 | AUC (NCIH292_LUNG): 1.194 | AUC (NCIH322_LUNG): 1.142 | AUC (NCIH358_LUNG): 0.8695 | AUC (NCIH446_LUNG): 1.097 | AUC (NCIH460_LUNG): 1.182 | AUC (NCIH520_LUNG): 1.115 | AUC (NCIH522_LUNG): 1.144 | AUC (NCIH596_LUNG): 1.0995 | AUC (NCIH650_LUNG): 0.9625 | AUC (NCIH661_LUNG): 1.097 | AUC (NCIH727_LUNG): 0.8802 | AUC (NCIH747_LARGE_INTESTINE): 1.192 | AUC (NCIH838_LUNG): 1.102 | AUC (NCIH841_LUNG): 0.9191 | AUC (NCIH1048_LUNG): 1.221 | AUC (NCIH1299_LUNG): 1.132 | AUC (NCIH1339_LUNG): 1.0827 | AUC (NCIH1355_LUNG): 1 | AUC (NCIH1373_LUNG): 1 | AUC (NCIH1435_LUNG): 1.103 | AUC (NCIH1437_LUNG): 1.1299 | AUC (NCIH1563_LUNG): 1.106 | AUC (NCIH1568_LUNG): 1.0425 | AUC (NCIH1573_LUNG): 1.2267 | AUC (NCIH1581_LUNG): 1 | AUC (NCIH1623_LUNG): 0.9367 | AUC (NCIH1648_LUNG): 0.9797 | AUC (NCIH1650_LUNG): 1 | AUC (NCIH1651_LUNG): 1.093 | AUC (NCIH1693_LUNG): 0.9899 | AUC (NCIH1703_LUNG): 1.014 | AUC (NCIH1792_LUNG): 1.039 | AUC (NCIH1793_LUNG): 1.204 | AUC (NCIH1838_LUNG): 1.05 | AUC (NCIH1915_LUNG): 1.114 | AUC (NCIH1944_LUNG): 1.069 | AUC (NCIH1975_LUNG): 0.971 | AUC (NCIH2009_LUNG): 1.115 | AUC (NCIH2023_LUNG): 1.241 | AUC (NCIH2030_LUNG): 1.104 | AUC (NCIH2052_PLEURA): 1.077 | AUC (NCIH2077_LUNG): 1.134 | AUC (NCIH2087_LUNG): 1.226 | AUC (NCIH2110_LUNG): 1.058 | AUC (NCIH2122_LUNG): 0.9408 | AUC (NCIH2126_LUNG): 1.236 | AUC (NCIH2170_LUNG): 1.101 | AUC (NCIH2172_LUNG): 1.092 | AUC (NCIH2228_LUNG): 1.118 | AUC (NCIH2347_LUNG): 1.188 | AUC (NCIH2444_LUNG): 1.192 | AUC (NCIH2452_PLEURA): 1.126 | AUC (NCIN87_STOMACH): 1.49 | AUC (NUGC3_STOMACH): 1.06 | AUC (NUGC4_STOMACH): 0.9885 | AUC (OAW42_OVARY): 1.241 | AUC (OC314_OVARY): 1.074 | AUC (OC316_OVARY): 1.04 | AUC (OE19_OESOPHAGUS): 1.175 | AUC (OE21_OESOPHAGUS): 1.031 | AUC (OE33_OESOPHAGUS): 1.151 | AUC (ONCODG1_OVARY): 0.9433 | AUC (ONS76_CENTRAL_NERVOUS_SYSTEM): 0.9415 | AUC (OSRC2_KIDNEY): 0.9859 | AUC (OUMS23_LARGE_INTESTINE): 0.9052 | AUC (OV56_OVARY): 1.208 | AUC (OVCAR8_OVARY): 0.9939 | AUC (OVISE_OVARY): 0.9359 | AUC (OVK18_OVARY): 1.044 | AUC (OVSAHO_OVARY): 1.01 | AUC (OVTOKO_OVARY): 1.081 | AUC (PANC1_PANCREAS): 0.9949 | AUC (PANC0203_PANCREAS): 0.9842 | AUC (PANC0327_PANCREAS): 1.28 | AUC (PANC0403_PANCREAS): 1.185 | AUC (PANC0813_PANCREAS): 1.0849 | AUC (PANC1005_PANCREAS): 1.231 | AUC (PATU8902_PANCREAS): 1.2352 | AUC (PATU8988S_PANCREAS): 1.1933 | AUC (PATU8988T_PANCREAS): 1.0752 | AUC (PC3_PROSTATE): 0.9113 | AUC (PC14_LUNG): 1.023 | AUC (PECAPJ15_UPPER_AERODIGESTIVE_TRACT): 0.9342 | AUC (PECAPJ41CLONED2_UPPER_AERODIGESTIVE_TRACT): 0.9621 | AUC (PECAPJ49_UPPER_AERODIGESTIVE_TRACT): 1.067 | AUC (PK1_PANCREAS): 1.024 | AUC (PK45H_PANCREAS): 1.109 | AUC (PK59_PANCREAS): 1.206 | AUC (PLCPRF5_LIVER): 1.091 | AUC (PSN1_PANCREAS): 1.221 | AUC (QGP1_PANCREAS): 0.967 | AUC (RCC10RGB_KIDNEY): 1.114 | AUC (RCM1_LARGE_INTESTINE): 1.243 | AUC (RD_SOFT_TISSUE): 1.111 | AUC (RERFLCAD1_LUNG): 1.059 | AUC (RERFLCAD2_LUNG): 1.0662 | AUC (RERFLCAI_LUNG): 0.9008 | AUC (RERFLCKJ_LUNG): 0.9276 | AUC (RERFLCMS_LUNG): 1.058 | AUC (RH30_SOFT_TISSUE): 1.104 | AUC (RKN_SOFT_TISSUE): 0.8189 | AUC (RKO_LARGE_INTESTINE): 0.9705 | AUC (RL952_ENDOMETRIUM): 1.086 | AUC (RMGI_OVARY): 1.148 | AUC (RMUGS_OVARY): 0.9927 | AUC (RT4_URINARY_TRACT): 1.661

Source: article PMC7093416, “Selective USP7 inhibition elicits cancer cell killing through a p53-dependent mechanism” (Scientific Reports, 2020)
